According to paper PMC8597757, “Pharmacokinetic and Safety Profile of the Novel HIV Nonnucleoside Reverse Transcriptase Inhibitor MK-8507 in Adults without HIV” (Antimicrobial Agents and Chemotherapy, 2021):
“Also recorded” adds a separate entry of the source.

Legend:
HIV-1 = assay: PK target of Ctrough >=6 x IC50 (in vitro potency); conditions: Human immunodeficiency virus 1; Ctrough target expected to achieve antiviral efficacy; meta-analysis ref 20; read-out: 6 × IC50 threshold (PK target for C168hr)
Procedure: The plasma PK profile of MK-8507 is supportive of QW administration. Following oral administration, MK-8507 is readily absorbed, with a Tmax of ∼2 to 7 h followed by a biphasic decline in plasma concentration. […] Concentration at trough is the PK parameter generally associated with antiviral efficacy of HIV treatment ([20][–][23]). Based on a meta-analysis of Ctrough normalized by in vitro potency and viral load data from other NNRTIs ([20]), a PK target of Ctrough ≥6 × 50% inhibitory concentration (IC50) is a threshold expected to achieve antiviral efficacy as part of combination therapy. […] These PK results support further development of MK-8507 as a QW oral agent for treatment of HIV administered as part of a complete treatment regimen together with islatravir.

[1] = tested on: common NNRTI resistance-associated variants; conditions: cited from earlier work
[2] = Single-dose plasma pharmacokinetics of MK-8507 (suspension, study 1; tablet, study 2); format: in vivo; conditions: human; for Cmax: n=6, read-out: Cmax (geometric mean [95% CI]); for AUC(0-t): n=6, read-out: AUC0–168 (geometric mean [95% CI]); for concentration at 168 h: n=6, read-out: C168hr (geometric mean [95% CI])
Procedure: (§1) Study 1 was a 4-period, alternating panel (A and B), rising single-dose trial. Participants in each panel were randomized to receive single rising doses of MK-8507 (n = 6 per panel) or placebo (n = 2 per panel) as an oral suspension. All study drugs were administered after an overnight fast, except in period 4. […] There was a minimum 20-day washout interval between doses within each panel and a 10-day interval between each dosing period. […] MK-8507 in plasma was extracted by protein precipitation and analyzed by reversed-phase chromatographic separation coupled with tandem mass spectrometric detection by Merck & Co., Inc. (West Point, PA, USA). The liquid chromatography-tandem mass spectrometric (LC-MS/MS) system consisted of a Waters Acquity ultraperformance liquid chromatography system (Waters Corporation, Milford, MA, USA) employing a turbo ionspray interface in the negative ion mode. The lower limit of quantitation was 1.0 ng/mL (2.03 nM) with a linear calibration range from 1.0 to 1000 ng/mL. The mean intrarun accuracy was 94.8 to 113% (precision, ≤6.2% coefficient of variation [CV]), and the mean interrun accuracy was 94.4 to 103.0% (precision, ≤8.6% CV). […] Statistical analyses were performed using SAS software version 9.3 (SAS Institute Inc., Cary, NC, USA). […] The least-squares geometric mean (GM) and corresponding 95% CIs obtained from the models were exponentiated to provide estimates for the population GMs and CIs on the original scales.

[3] = Dose proportionality assessment of single oral doses 2 to 1,200 mg; format: in vivo, human
Description: The AUC0-168hr and […] group was not statistically significant at the 0.05 level and was therefore omitted from the final model. An overall slope was estimated across all groups.

[4] = Single-dose plasma pharmacokinetics of MK-8507 (suspension, study 1; tablet, study 2); format: in vivo; conditions: human, fasted; for AUC(0-inf): n=6, read-out: AUC0-∞ (geometric mean [95% CI]); for AUC(0-t): n=6, read-out: AUC0–168 (geometric mean [95% CI]); for half-life: n=6, read-out: Apparent terminal t½ (geometric mean [%GVC]) (converted); for concentration at 168 h: n=6, read-out: C168hr (geometric mean [95% CI]); for Cmax: n=6, read-out: Cmax (geometric mean [95% CI])
[5] = Food effect assessment (100 mg suspension, high-fat meal vs fasted); format: in vivo, human
Procedure: as §1

[6] = Cross-study formulation comparison, 400 mg tablet vs suspension; format: in vivo, human
Procedure: Statistical analyses were performed using SAS software version 9.3 (SAS Institute Inc., Cary, NC, USA). […] The least-squares geometric mean (GM) and corresponding 95% CIs obtained from the models were exponentiated to provide estimates for the population GMs and CIs on the original scales. To assess the effect of food, 90% CIs were calculated for the GMR (fed/fasted) of MK-8507 AUC0-∞, Cmax, and C168hr. […] The point estimates and the corresponding 95% CIs were obtained from the model for GM of each formulation; the GMR and 90% CIs comparing tablet to suspension were estimated using the model.

[7] = po, 30 mg, single oral dose 30 mg, suspension, fasted
[8] = po, 400 mg, single oral dose 400 mg, suspension, fasted
[9] = po, 2 mg, single oral dose 2 mg, suspension
[10] = po, 10 mg, single oral dose 10 mg, suspension
[11] = po, 30 mg, single oral dose 30 mg, suspension
[12] = po, 100 mg, single oral dose 100 mg, suspension
[13] = po, 200 mg, single oral dose 200 mg, suspension
[14] = po, 400 mg, single oral dose 400 mg, suspension
[15] = po, 400 mg, single oral dose 400 mg, tablet
[16] = po, 800 mg, single oral dose 800 mg, tablet
[17] = po, 1200 mg, single oral dose 1,200 mg, tablet
[18] = 100 mg suspension, compared with fasted administration

Compound: N#Cc1cc(Cl)cc(Oc2c(C(F)(F)F)ncn(Cc3cc(C(F)(F)F)c(=O)[nH]n3)c2=O)c1 [MK-8507]
- IC50 (HIV-1): 0.148 µg/mL
- PK target concentration for C168hr (6 × IC50) (HIV-1): 300 nM
- in vitro activity against common NNRTI resistance-associated variants [1]: demonstrated in vitro activity
- half-life ([2]; oral, overall, discussion, read-out: terminal t½ (converted)): ~70 h
- half-life ([2]; oral, single doses 2 to 1,200 mg, range across doses, read-out: mean terminal half-life (t1/2)): 58 to 84 h
- half-life ([2]; oral, some participants, 336 h of PK sampling, read-out: t1/2 in some participants): > 100 h
- Tmax ([2]; oral, suspension, fasted, range across doses, read-out: median Tmax): 2 to 4 h
- Cmax ([2]; po, 2 mg, single oral dose 2 mg, suspension, fasted): 50 nM
- AUC(0-inf) ([2]; po, 10 mg, single oral dose 10 mg, suspension, fasted, n=6, read-out: AUC0-∞ (geometric mean [95% CI])): 15.2 µM·h
- Cmax ([2]; po, 10 mg, single oral dose 10 mg, suspension, fasted): 220 nM
- AUC(0-t) [2, 7]: 39.7 µM·h
- concentration at 168 h [2, 7]: 100 nM
- Tmax ([2]; po, 30 mg, single oral dose 30 mg, suspension, fasted, n=6, read-out: Tmax (median [min, max])): 2 h
- Tmax ([2]; po, 100 mg, single oral dose 100 mg, suspension, fasted, n=6, read-out: Tmax (median [min, max])): 2.04 h
- AUC(0-t) ([2]; po, 200 mg, single oral dose 200 mg, suspension, fasted): 287 µM·h
- concentration at 168 h [2, 8]: 1300 nM
- Cmax [2, 8]: 11500 nM
- Tmax ([2]; po, oral doses across both studies, suspension or tablet, read-out: time to maximum concentration (Tmax)): 2 to 7 h
- dose proportionality of pharmacokinetics ([3]; 2 to 1,200 mg): increased dose proportionally; also recorded: approximately dose proportional
- Estimate of slope, C168hr as a function of dose ([3]; single oral doses of 2 to 1,200 mg, ln-ln linear mixed-effect model): 0.9932
- Tmax ([4]; oral, tablet, range across doses, read-out: median Tmax): 4 to 7 h
- AUC(0-inf) [4, 9]: 3.82 µM·h
- AUC(0-t) [4, 9]: 2.94 µM·h
- half-life [4, 9]: 82.9 h
- concentration at 168 h [4, 9]: 10 nM
- Tmax ([4]; po, 2 mg, single oral dose 2 mg, suspension, n=6, read-out: Tmax (median [min, max])): 2 h
- AUC(0-t) [4, 10]: 11.9 µM·h
- half-life [4, 10]: 82 h
- concentration at 168 h [4, 10]: 30 nM
- Tmax ([4]; po, 10 mg, single oral dose 10 mg, suspension, n=6, read-out: Tmax (median [min, max])): 2 h
- AUC(0-inf) [4, 11]: 52 µM·h
- half-life [4, 11]: 77.7 h
- Cmax [4, 11]: 790 nM
- AUC(0-inf) [4, 12]: 175 µM·h
- AUC(0-t) [4, 12]: 139 µM·h
- half-life [4, 12]: 75.9 h
- concentration at 168 h [4, 12]: 300 nM
- Cmax [4, 12]: 2580 nM
- AUC(0-inf) [4, 13]: 374 µM·h
- half-life [4, 13]: 83.5 h
- concentration at 168 h [4, 13]: 680 nM
- Cmax [4, 13]: 5400 nM
- Tmax ([4]; po, 200 mg, single oral dose 200 mg, suspension, n=6, read-out: Tmax (median [min, max])): 2.02 h
- AUC(0-inf) [4, 14]: 770 µM·h
- AUC(0-t) [4, 14]: 619 µM·h
- half-life [4, 14]: 69.1 h
- Tmax ([4]; po, 400 mg, single oral dose 400 mg, suspension, n=6, read-out: Tmax (median [min, max])): 4 h
- AUC(0-inf) [4, 15]: 710 µM·h
- AUC(0-t) [4, 15]: 606 µM·h
- half-life [4, 15]: 58.3 h
- concentration at 168 h [4, 15]: 1280 nM
- Cmax [4, 15]: 9090 nM
- Tmax ([4]; po, 400 mg, single oral dose 400 mg, tablet, n=6, read-out: Tmax (median [min, max])): 7 h
- AUC(0-inf) [4, 16]: 1230 µM·h
- AUC(0-t) [4, 16]: 989 µM·h
- half-life [4, 16]: 70.9 h
- concentration at 168 h [4, 16]: 2100 nM
- Cmax [4, 16]: 15400 nM
- Tmax ([4]; po, 800 mg, single oral dose 800 mg, tablet, n=6, read-out: Tmax (median [min, max])): 4 h
- AUC(0-inf) [4, 17]: 1920 µM·h
- AUC(0-t) [4, 17]: 1570 µM·h
- half-life [4, 17]: 68.7 h
- concentration at 168 h [4, 17]: 3590 nM
- Cmax [4, 17]: 23600 nM
- Tmax ([4]; po, 1200 mg, single oral dose 1,200 mg, tablet, n=6, read-out: Tmax (median [min, max])): 5 h
- effect of a high-fat meal on MK-8507 pharmacokinetics ([5]; 100 mg suspension): no clinically meaningful effect; also recorded: no meaningful effect on AUC0–∞ or C168hr
- change in C168hr by a high-fat meal [5, 18]: no change
- decrease of AUC0–∞ by a high-fat meal [5, 18]: ~9%
- decrease of Cmax by a high-fat meal [5, 18]: 35%
- delay of Tmax by a high-fat meal [5, 18]: ~8 h
- AUC(0-inf) ([5]; human, single oral dose 100 mg (fed), suspension, following a high-fat meal, plasma, n=6, read-out: AUC0-∞ (geometric mean [95% CI])): 159 µM·h
- AUC(0-t) ([5]; human, single oral dose 100 mg (fed), suspension, following a high-fat meal, plasma, n=6, read-out: AUC0–168 (geometric mean [95% CI])): 126 µM·h
- half-life ([5]; human, single oral dose 100 mg (fed), suspension, following a high-fat meal, plasma, n=6, read-out: Apparent terminal t½ (geometric mean [%GVC]) (converted)): 72.6 h
- concentration at 168 h ([5]; human, single oral dose 100 mg (fed), suspension, following a high-fat meal, plasma, n=6, read-out: C168hr (geometric mean [95% CI])): 310 nM
- Cmax ([5]; human, single oral dose 100 mg (fed), suspension, following a high-fat meal, plasma, n=6, read-out: Cmax (geometric mean [95% CI])): 1670 nM
- Tmax ([5]; human, single oral dose 100 mg (fed), suspension, following a high-fat meal, plasma, n=6, read-out: Tmax (median [min, max])): 10 h
- GMR fed/fasted, C168hr ([5]; single oral dose 100 mg suspension, high-fat meal vs overnight fast, n=6): 1.02
- reduction of Cmax, tablet compared to suspension ([6]; 400-mg dose): 21%
- GMR (90% CI) tablet/suspension, C168hr ([6]; 400-mg single dose): 0.93 (0.66, 1.29)
